Legend:
[1] = tested on: HCT116 colorectal carcinoma cell line; test: MTS antiproliferative assay, HCT116; assay type: cell-based, human
Experimental: The cytotoxic potential of the complexes was evaluated by assessing their viability using the 3-(4,5-dimethylthiazol-2-yl)-5-(3-carboxymethoxyphenyl)-2-(4-sulfophenyl)-2H tetrazolium, inner salt (MTS) colorimetric assay in three tumor cell lines—ovarian carcinoma, A2780, colorectal carcinoma, HCT116, and colorectal carcinoma resistant to doxorubicin, HCT116-Dox and in normal human primary dermal fibroblasts (Figure 1 and Figure S7).
Normal dermal human fibroblasts, colorectal carcinoma cell line HCT116 and ovarian carcinoma cell line A2780 were acquired from ATCC (Manassas, VA, USA). […] Fibroblasts and HCT116 cells were cultured in Dulbecco’s modified Eagle medium (DMEM, Thermo Fisher Scientific) and A2780 cell line was cultured on Roswell Park Memorial institute 1640 (RPMI-1640, Thermo Fisher Scientific). Both media were supplemented with 10% (v/v) fetal bovine serum (FBS, Thermo Fisher Scientific) and a mixture of 100 U/mL penicillin and 100 mg/mL streptomycin. The supplemented media are referred to from this point on as DMEM or RPMI for simplicity. […] All experiments underwent at 37 °C, 5% (v/v) CO2 and 99% (v/v) humidity in the dark.
Cells were seeded in a 96-well plate in a density of 7500 cells/well, and after 24 h was submitted to a concentration range between 0.1–50 µM of complexes JHOR10 and JHOR11. DMSO with a 0.1% (v/v) concentration was used as vector control and cisplatin was used as positive control in all replicates. After 48 h incubation, cellular viability was inferred with the Cell Titer 96® Aqueous One solution cell proliferation assay (Promega, Madison, WI, USA) according to the manufacturer’s instructions and procedures previously described [18, 40]. The absorbance of the produced Formazan was quantified with a Tecan microplate reader, Infinite M200 (Tecan, Mannedorf, Switzerland) and the analysis of the dose–response curves to determine the relative IC50 was performed with GraphPad Prism 8.2.1 software (GraphPad Software, La Jolla, CA, USA).

A2780 cells [2] = test: Apoptosis, Annexin V-Alexa Fluor 488/propidium iodide double staining; assay type: cell-based, human; conditions: A2780, 48 h, IC50 of the complex
Experimental: To understand if the loss of cell viability of an A2780 cell incubated with JHOR11 is due to cell apoptosis, cells were incubated with the IC50 of the complex and then double-stained with Annexin V, conjugated with AlexaFluor 488 and with propidium iodide (PI) to discriminate between live cells (unstained), cells in initial apoptosis (green-stained cells), cells in late apoptosis (double-stained cells) and cells in necrosis (red-stained cells).
The double staining of the A2780 cells incubated with JHOR11 for apoptosis evaluation followed procedures previously described. Briefly, A2780 cells were seeded on 6-well plates in a density of 2 × 10^5 cells/well, and incubated for 48 h with IC50 JHOR11, 0.1% (v/v) DMSO as vector control, and 3.5 µM cisplatin as positive control. Cells were then detached from the wells and double stained using the dead cell apoptosis kits with Annexin V for flow cytometry (Thermo Fisher Scientific) according to manufacturer’s instructions. The percentage of live cells (unstained), cells in initial apoptosis (stained with annexin V-Alexa Fluor 488), cells in late apoptosis (double stained with annexin V-Alexa Fluor 488 and propidium iodide) or cells in necrosis (stained with propidium iodide) was quantified using an Attune acoustic focusing flow cytometer and respective software (Thermo Fisher Scientific).

A2780 cells [3] = test: Trypan blue exclusion method; assay type: cell-based, human; conditions: A2780, 48 h
Experimental: A2780 cells were exposed for 48 h to the IC50 of JHOR11, and to a concentration 10 times higher and 10 times lower the IC50, and the live (transparent) and dead (blue) cells that remained adherent or in the supernatant were counted (Figure 6). A2780 cells were also incubated with 0.1% (v/v) DMSO as a vector control, and 0.1 µM doxorubicin as positive control (Supplementary Information, Figure S8).
A2780 cells were seeded on a 24-well culture plate at a density of 37,500 cells/well. After 24 h to assure cell adherence, the medium was replaced by fresh RPMI supplemented with 0.1% (v/v) DMSO, 0.1 µM Doxorubicin or JHOR11 complex in three different concentrations: 1/10 IC50, IC50 or 10 × IC50. After 8 h, 24 h or 48 h incubation, the supernatant was removed and mixed with trypan blue (Thermo Fisher Scientific) to a final concentration 0.1% (w/v). In parallel, cells were detached from the well, centrifuged at 500× g and pellet was resuspended in 0.1% (w/v) Trypan blue. The number of viable cells and cells with compromised membrane (stained with blue) in both fractions were counted in a haemocytometer (Hirschmann, Eberstadt, Germany) and a CXX41 inverted microscope (Olympus, Tokyo, Japan).

A2780 cells [4] = test: Autophagy assay (flow cytometry); assay type: cell-based, human; conditions: A2780, 48 h, IC50 of JHOR11
Experimental: To understand if the cytotoxic effect of the complex is correlated with autophagy, A2780 cells were exposed for 48 h to the IC50 of complex JHOR11. They were then incubated with an autophagic fluorescent dye (Abcam) that becomes highly fluorescent when incorporated into pre-autophagosomes, autophagosomes or autophagolysosomes. Cells were also incubated with DMSO 0.1% (v/v) for vehicle control, and with 1.5 μM rapamycin and 3.5 μM cisplatin as positive controls.
The fluorescence quantification and percentage of autophagic cells was performed on an Attune acoustic focusing flow cytometer and respective software (Thermo Fisher Scientific).

[5] = tested on: HCT116 cells injected into zebrafish embryos; test: Zebrafish embryo xenograft assay; assay type: in vivo; conditions: 80 μM in embryo water from 1 dpi, read at 4 dpi
Experimental: HCT116 human colorectal cancer cell line was incubated in standard conditions (37 °C and 5% CO2) until a confluence of 80% was reached. Afterwards, the cells were concentrated and labelled with DiI and injected into the circulation (Duct of Cuvier) of 48 hpf zebrafish embryos to assay the proliferation in vivo of the cells exposed to JHOR11 (80 μM). JHOR11 was dissolved in the embryo water at 1 dpi (days post-injection) for the embryos to recover from the injection and the establishment of the cancer cells in the caudal hematopoietic tissue (CHT), and was maintained until the end of the experiment at 4 dpi. Imaging of the embryos was performed at 1 dpi and 4 dpi to quantify the fluorescence and area of the cells in the tail of the embryos, where cells invade and grow, and measure their proliferation over time to assess the inhibitory effect of JHOR11 over the cells. […]
The images were obtained with an AZ-100 Nikon fluorescence stereomicroscope at two different times ([…]) allowing in vivo monitoring of the proliferating HCT116 cells labelled within the zebrafish embryo. The analysis of the cell progression was carried out using Quantifish Software. This software analyzes each image by measuring its fluorescence above a manually set threshold that produces the integrated intensity of each image as the output. […]

Cc1ccc(C(C)C)cc1.F[P-](F)(F)(F)(F)F.O=C1C(=O)c2cccnc2-c2ncccc21.[Cl][Ru+] [JHOR11]
IC50 ([1]; 48 h incubation, MTS, read-out: Relative IC50, HCT116): 5.5 ± 0.3 µM | selective index in HCT116 ([1]; relative to fibroblasts): 8.1 | percentage of apoptotic cells (A2780 cells [2]): 3% | cells in the supernatant at 1/10 IC50 (Trypan blue) (A2780 cells [3]; 1/10 IC50): exclusively live cells | cells in the supernatant with increasing concentration (Trypan blue) (A2780 cells [3]; 1/10 IC50, IC50, 10 × IC50): increased percentage of cells in the supernatant | percentage of cells with autophagic events (A2780 cells [4]): 48.8 ± 7.5% | decrease of proliferation of HCT116 cells compared to control [5]: 45%

Source: paper PMC9656482, “In Vitro and In Vivo Biological Activity of Ruthenium 1,10-Phenanthroline-5,6-dione Arene Complexes” (International Journal of Molecular Sciences, 2022)
